Reference: ChEMBL document CHEMBL2434896, “Carbonic anhydrase inhibitors. Synthesis of heterocyclic 4-substituted pyridine-3-sulfonamide derivatives and their inhibition of the human cytosolic isozymes I and II and transmembrane tumor-associated isozymes IX and XII” (Eur J Med Chem, 2013)
Activity calls are given as the source filed them. No cut-off for these calls is given here.

Assays:
[1] = tested on: 786-0; assay: Growth inhibition of human 786-0 cells at 10 uM after 48 hrs by sulforhodamine B assay; format: functional
[2] = tested on: BT-549; assay: Growth inhibition of human BT549 cells at 10 uM after 48 hrs by sulforhodamine B assay; format: functional
[3] = tested on: MDA-MB-231; assay: Growth inhibition of human MDA-MB-231 cells at 10 uM after 48 hrs by sulforhodamine B assay; format: functional
[4] = tested on: NCI-H522; assay: Growth inhibition of human NCI-H522 cells at 10 uM after 48 hrs by sulforhodamine B assay; format: functional
[5] = tested on: UACC-62; assay: Growth inhibition of human UACC62 cells at 10 uM after 48 hrs by sulforhodamine B assay; format: functional
[6] = tested on: HT-29; assay: Growth inhibition of human HT-29 cells at 10 uM after 48 hrs by sulforhodamine B assay; format: functional; conditions: HT-29, 48 h, read-out: GI
[7] = tested on: SF-268; assay: Growth inhibition of human SF268 cells at 10 uM after 48 hrs by sulforhodamine B assay; format: functional
[8] = tested on: OVCAR-8; assay: Growth inhibition of human OVCAR8 cells at 10 uM after 48 hrs by sulforhodamine B assay; format: functional
[9] = tested on: CAKI-1; assay: Growth inhibition of human CAKI-1 cells at 10 uM after 48 hrs by sulforhodamine B assay; format: functional; conditions: CAKI-1, 48 h, read-out: GI
[10] = tested on: SK-OV-3; assay: Growth inhibition of human SKOV3 cells at 10 uM after 48 hrs by sulforhodamine B assay; format: functional; conditions: SK-OV-3, 48 h, read-out: GI
[11] = Growth inhibition of human EKVX cells at 10 uM after 48 hrs by sulforhodamine B assay; format: functional; conditions: read-out: GI
[12] = tested on: NCI-H460; assay: Growth inhibition of human NCI-H460 cells at 10 uM after 48 hrs by sulforhodamine B assay; format: functional
[13] = tested on: SF-539; assay: Growth inhibition of human SF539 cells at 10 uM after 48 hrs by sulforhodamine B assay; format: functional; conditions: SF-539, 48 h, read-out: GI
[14] = tested on: UO-31; assay: Growth inhibition of human UO31 cells at 10 uM after 48 hrs by sulforhodamine B assay; format: functional; conditions: UO-31, 48 h, read-out: GI
[15] = tested on: COLO 205; assay: Growth inhibition of human COLO205 cells at 10 uM after 48 hrs by sulforhodamine B assay; format: functional; conditions: COLO 205, 48 h, read-out: GI
[16] = tested on: SR; assay: Growth inhibition of human SR cells at 10 uM after 48 hrs by sulforhodamine B assay; format: functional
[17] = tested on: SNB-75; assay: Growth inhibition of human SNB75 cells at 10 uM after 48 hrs by sulforhodamine B assay; format: functional
[18] = tested on: A549; assay: Growth inhibition of human A549/ATCC cells at 10 uM after 48 hrs by sulforhodamine B assay; format: functional; conditions: A549, 48 h, read-out: GI
[19] = tested on: SN12C; assay: Growth inhibition of human SN12C cells at 10 uM after 48 hrs by sulforhodamine B assay; format: functional
[20] = tested on: DU-145; assay: Growth inhibition of human DU145 cells at 10 uM after 48 hrs by sulforhodamine B assay; format: functional
[21] = tested on: UACC-257; assay: Growth inhibition of human UACC257 cells at 10 uM after 48 hrs by sulforhodamine B assay; format: functional
[22] = tested on: KM12; assay: Growth inhibition of human KM12 cells at 10 uM after 48 hrs by sulforhodamine B assay; format: functional
[23] = tested on: OVCAR-3; assay: Growth inhibition of human OVCAR3 cells at 10 uM after 48 hrs by sulforhodamine B assay; format: functional
[24] = tested on: M14; assay: Growth inhibition of human M14 cells at 10 uM after 48 hrs by sulforhodamine B assay; format: functional
[25] = tested on: T47D; assay: Growth inhibition of human T47D cells at 10 uM after 48 hrs by sulforhodamine B assay; format: functional; conditions: read-out: GI
[26] = tested on: Malme-3M; assay: Growth inhibition of human MALME-3M cells at 10 uM after 48 hrs by sulforhodamine B assay; format: functional; conditions: read-out: GI
[27] = tested on: NCI/ADR-RES; assay: Growth inhibition of human NCI-ADR-RES cells at 10 uM after 48 hrs by sulforhodamine B assay; format: functional
[28] = tested on: SW-620; assay: Growth inhibition of human SW620 cells at 10 uM after 48 hrs by sulforhodamine B assay; format: functional
[29] = tested on: HOP-62; assay: Growth inhibition of human HOP62 cells at 10 uM after 48 hrs by sulforhodamine B assay; format: functional
[30] = tested on: SF-295; assay: Growth inhibition of human SF295 cells at 10 uM after 48 hrs by sulforhodamine B assay; format: functional; conditions: SF-295, 48 h, read-out: GI
[31] = tested on: SNB-19; assay: Growth inhibition of human SNB19 cells at 10 uM after 48 hrs by sulforhodamine B assay; format: functional
[32] = tested on: OVCAR-4; assay: Growth inhibition of human OVCAR4 cells at 10 uM after 48 hrs by sulforhodamine B assay; format: functional
[33] = tested on: A498; assay: Growth inhibition of human A498 cells at 10 uM after 48 hrs by sulforhodamine B assay; format: functional
[34] = tested on: HL-60(TB); assay: Growth inhibition of human HL-60(TB) cells at 10 uM after 48 hrs by sulforhodamine B assay; format: functional
[35] = tested on: RPMI-8226; assay: Growth inhibition of human RPMI8226 cells at 10 uM after 48 hrs by sulforhodamine B assay; format: functional; conditions: RPMI-8226, 48 h, read-out: GI
[36] = tested on: OVCAR-5; assay: Growth inhibition of human OVCAR5 cells at 10 uM after 48 hrs by sulforhodamine B assay; format: functional; conditions: OVCAR-5, 48 h, read-out: GI
[37] = tested on: K562; assay: Growth inhibition of human K562 cells at 10 uM after 48 hrs by sulforhodamine B assay; format: functional
[38] = target: Carbonic anhydrase 9 (Homo sapiens, UniProt Q16790); assay: Inhibition of human carbonic anhydrase 9 after 15 mins by stopped flow CO2 hydration assay
[39] = tested on: CCRF-CEM; assay: Growth inhibition of human CCRF-CEM cells at 10 uM after 48 hrs by sulforhodamine B assay; format: functional; conditions: read-out: GI
[40] = tested on: Hs-578T; assay: Growth inhibition of human Hs 578T cells at 10 uM after 48 hrs by sulforhodamine B assay; format: functional
[41] = tested on: TK-10; assay: Growth inhibition of human TK10 cells at 10 uM after 48 hrs by sulforhodamine B assay; format: functional; conditions: TK-10, 48 h, read-out: GI
[42] = tested on: NCI-H322M; assay: Growth inhibition of human NCI-H322M cells at 10 uM after 48 hrs by sulforhodamine B assay; format: functional; conditions: read-out: GI
[43] = tested on: PC-3; assay: Growth inhibition of human PC3 cells at 10 uM after 48 hrs by sulforhodamine B assay; format: functional; conditions: PC-3, 48 h, read-out: GI
[44] = tested on: ACHN; assay: Growth inhibition of human ACHN cells at 10 uM after 48 hrs by sulforhodamine B assay; format: functional
[45] = tested on: MCF7; assay: Growth inhibition of human MCF7 cells at 10 uM after 48 hrs by sulforhodamine B assay; format: functional
[46] = tested on: HCT-15; assay: Growth inhibition of human HCT15 cells at 10 uM after 48 hrs by sulforhodamine B assay; format: functional
[47] = tested on: SK-MEL-2; assay: Growth inhibition of human SK-MEL-2 cells at 10 uM after 48 hrs by sulforhodamine B assay; format: functional
[48] = tested on: MDA-MB-435; assay: Growth inhibition of human MDA-MB-435 cells at 10 uM after 48 hrs by sulforhodamine B assay; format: functional
[49] = tested on: U-251; assay: Growth inhibition of human U251 cells at 10 uM after 48 hrs by sulforhodamine B assay; format: functional; conditions: U-251, 48 h, read-out: GI
[50] = tested on: SK-MEL-5; assay: Growth inhibition of human SK-MEL-5 cells at 10 uM after 48 hrs by sulforhodamine B assay; format: functional; conditions: SK-MEL-5, 48 h, read-out: GI
[51] = tested on: MOLT-4; assay: Growth inhibition of human MOLT4 cells at 10 uM after 48 hrs by sulforhodamine B assay; format: functional; conditions: MOLT-4, 48 h, read-out: GI
[52] = tested on: HCC 2998; assay: Growth inhibition of human HCC2998 cells at 10 uM after 48 hrs by sulforhodamine B assay; format: functional
[53] = tested on: LOX IMVI; assay: Growth inhibition of human LOXIMVI cells at 10 uM after 48 hrs by sulforhodamine B assay; format: functional; conditions: read-out: GI
[54] = tested on: HCT-116; assay: Growth inhibition of human HCT116 cells at 10 uM after 48 hrs by sulforhodamine B assay; format: functional
[55] = tested on: SK-MEL-28; assay: Growth inhibition of human SK-MEL-28 cells at 10 uM after 48 hrs by sulforhodamine B assay; format: functional, cell-based
[56] = tested on: IGROV-1; assay: Growth inhibition of human IGROV1 cells at 10 uM after 48 hrs by sulforhodamine B assay; format: functional; conditions: IGROV-1, 48 h, read-out: GI
[57] = tested on: NCI-H23; assay: Growth inhibition of human NCI-H23 cells at 10 uM after 48 hrs by sulforhodamine B assay; format: functional
[58] = tested on: NCI-H226; assay: Growth inhibition of human NCI-H226 cells at 10 uM after 48 hrs by sulforhodamine B assay; format: functional

CCCCc1c(C)nn(-c2ccncc2S(N)(=O)=O)c1C
growth inhibition (GI) [1]: inactive | growth inhibition (GI) [2]: inactive | growth inhibition (GI) [3]: inactive | growth inhibition (GI) [4]: inactive | growth inhibition (GI) [5]: inactive | inhibition of growth at 10 µM [6]: 15% | growth inhibition (GI) [7]: inactive | growth inhibition (GI) [8]: inactive | inhibition of growth at 10 µM [9]: 5% | inhibition of growth at 10 µM [10]: 2% | inhibition of growth at 10 µM [11]: 6% | growth inhibition (GI) [12]: inactive | inhibition of growth at 10 µM [13]: 3% | inhibition of growth at 10 µM [14]: 23% | inhibition of growth at 10 µM [15]: 1% | growth inhibition (GI) [16]: inactive | growth inhibition (GI) [17]: inactive | inhibition of growth at 10 µM [18]: 17% | growth inhibition (GI) [19]: inactive | growth inhibition (GI) [20]: inactive | growth inhibition (GI) [21]: inactive | growth inhibition (GI) [22]: inactive | growth inhibition (GI) [23]: inactive | growth inhibition (GI) [24]: inactive | inhibition of growth at 10 µM [25]: 11% | inhibition of growth at 10 µM [26]: 13% | growth inhibition (GI) [27]: inactive | growth inhibition (GI) [28]: inactive | growth inhibition (GI) [29]: inactive | inhibition of growth at 10 µM [30]: 8% | growth inhibition (GI) [31]: inactive | growth inhibition (GI) [32]: inactive | growth inhibition (GI) [33]: inactive | growth inhibition (GI) [34]: inactive | inhibition of growth at 10 µM [35]: 27% | inhibition of growth at 10 µM [36]: 8% | growth inhibition (GI) [37]: inactive | Ki [38]: 48.6 nM | inhibition of growth at 10 µM [39]: 8% | growth inhibition (GI) [40]: inactive | inhibition of growth at 10 µM [41]: 9% | inhibition of growth at 10 µM [42]: 7% | inhibition of growth at 10 µM [43]: 8% | growth inhibition (GI) [44]: inactive | growth inhibition (GI) [45]: inactive | growth inhibition (GI) [46]: inactive | growth inhibition (GI) [47]: inactive | growth inhibition (GI) [48]: inactive | inhibition of growth at 10 µM [49]: 8% | inhibition of growth at 10 µM [50]: 16% | inhibition of growth at 10 µM [51]: 17% | growth inhibition (GI) [52]: inactive | inhibition of growth at 10 µM [53]: 2% | growth inhibition (GI) [54]: inactive | growth inhibition (GI) [55]: inactive | inhibition of growth at 10 µM [56]: 3% | growth inhibition (GI) [57]: inactive | growth inhibition (GI) [58]: inactive
